One assay has as its system mice. The experiment in a line: In vivo delivery of Luciferase mRNA by targeted ADGN-peptide variants, intravenous (Example 9). Conditions: 5 μg Luc mRNA.
In the next assay the test system is mice or rat models. As to the kind of experiment: Summary of cargo delivery to targeted organ (Table 1). The following applies: cargoes and route (IV, IM, SQ, NB) per peptide as listed in Table 1. Format: in vivo. The source says:
Table 1 lists a summary of cell-penetrating peptides that have been proven successful in delivering various cargo molecules to on or more targeted organ (e.g., by intravenous (IV), intramuscular (IM), or subcutaneous (SQ) administration, or intratraccheal instillation or nebulization (NB)) in mice or rat models.

The next assay concerns 293T cells. As to the kind of experiment: Cellular delivery of Luciferase mRNA, luciferase expression at 72 hrs. Format: cell-based. Conditions: 0.25 μg Luc mRNA; for luciferase expression: absence of serum or heparan sulfate treatment; for reduction of efficiency / luciferase expression after serum treatment: complexes incubated 3 hrs in 25% serum prior transfection. The procedure: FIGS. 1A-1C show luciferase expression in 293T cells treated with ADGN-peptide/mRNA complexes. 293T cells cultured in 48 well plates were transfected with ADGN-peptide nanoparticles. ADGN-100, ADGN-106, ADGN-100RI, ADGN-106RI, ADGN-100 Stearyl, ADGN-Hydro1, ADGN-Hydro2, ADGN-Hydro3, ADGN-Hydro4, ADGN-Hydro5, ADGN-Hydro6 and ADGN-peptide/ADGN-100PEG 10% nanoparticles containing 0.25 μg mRNA were formed in sterile water, diluted in sterile water containing 5% Sucrose and filtered with 0.45 μm PES filters. ADGN/mRNA complexes were incubated for 3 hrs in the presence of either 25% serum or heparan sulfate prior transfection. Luciferase expression was monitored 72 hours post transfection and results were reported as RLU (luminescence):mg of protein.
Complex formation with mRNA. The following protocols were used for the transfection of 2-5 106 Cells or Cells at confluency of about 70-80% cultured in 24 well plates. ADGN peptide/mRNA particles were prepared at a 20:1 molar ratio of ADGN-Peptide/mRNA. using (0.25 μg) mRNA. Luc mRNA (0.25 μg) was diluted in 20 μl of sterile water (GIBCO) at room temperature. 5 μl Final Peptide Solution was added to obtain a total volume of 20 μl. The volume was adjusted to 50 μl with sterile water and was mixed gently with vortex 1 min low speed and incubated 30 min at room temperature. Then the volume was made up to 100 μl by adding sterile water containing 5% sucrose, and the solution was mixed gently with vortex 1 min low speed and incubate 5 min at 37° C. and then was proceeded to cell transfection.
Transfection protocol. Protocol is reported for 24 well plate format. Cells were cultured in Dulbecco's Modified Eagle's Medium (DMEM), supplemented with 2 mM glutamine, 1% antibiotics (streptomycin 10,000 μg/mL, penicillin, 10,000 IU/mL) and 10% (w/v) foetal calf serum (FCS), at 37° C. in a humidified atmosphere containing 5% CO2. 24 well plates seeded with 150,000 cells the day prior to transfection were grown to 50-60% confluence and set up to be at about 70% confluences at the time of transfection. Before transfection, cells were washed twice with DMEM. Cells were then overlaid with 0.1 ml of ADGN-peptide/cargo complex solution containing 0.25 μg mRNA, 0.15 μg plasmid DNA or 10-25 nM siRNA, mixed gently, and incubated for 10 min at 37° C. 0.2 mL of fresh DMEM, were added and cells were incubated for 20 min at 37° C. 1 mL of complete DMEM containing 15% FCS were then added in order to reach a final FCS concentration of 10%, without removing the overlay of ADGN-peptide/cargo complexes. Cells were returned to the incubator (37° C., 5% CO2) and 72 hrs post transfection.
ADGN-peptides were evaluated for cellular delivery of Luciferase mRNA in 293T cells. A single dose of mRNA of 0.25 μg was evaluated. Luc mRNA (0.25 μg) in sterile water (GIBCO) were mixed with ADGN-100, ADGN-100RI, ADGN-106, ADGN-106RI, ADGN-100 Stearyl, ADGN-Hydro1, ADGN-Hydro2, ADGN-Hydro5 and ADGN-Hydro6. ADGN-peptide/mRNA complexes were filtered with 0.45 μm PES filter. In order to evaluate the stability of the ADGN/mRNA complexes in high serum and cell culture conditions, the complexes were incubated for 3 hrs in the presence of either 25% serum or heparan sulfate prior transfection, then 293T cells were transfected and Luciferase expression was monitored at 72 hrs.
ADGN-106 peptides containing YIGSR targeting sequence were evaluated for cellular delivery of Luciferase mRNA in 293T cells. A single dose of mRNA of 0.25 μg was evaluated. Luc mRNA (0.25 μg) in sterile water (GIBCO) were mixed with ADGN-106 and ADGN-106Hydro variant. ADGN-peptide/mRNA complexes were filtered with 0.45 μm PES filter. The ADGN-106/mRNA complexes were incubated for 3 hrs in the presence of 25% serum prior transfection, then 293T cells were transfected and Luciferase expression was monitored at 72 hrs.

Square brackets hold non-standard residues; d marks the D form. Ava = NCCCCC(=O)O; βAla = NCCC(=O)O

“Ac-THRPPNWSPVWP-RALWRLWRSLWRLRWKA-NH2 (Ac-THRPPNWSPVWPRALWRLWRSLWRLRWKA-NH2) [ADGN-106TC]”: in the assay on mice, the “target delivery and expression of mRNA (tissues)” value (shortened to “target delivery and expression”) is “the brain”. For the same substance, the “Targeted Organ” value in the assay on mice or rat models is “Brain”.
Turning to “Ac-LSSRLDA-Ava-KWWERWWREWPRKRR [ADGN-104]”, the “target delivery and expression” value with mice is “heart and muscles and at lower level in the liver”.
In the case of “Ac-YIGSR-Ahx-ALWRALWRLWRSLWRLLWKA-NH2 [ADGN-106-Hydro-8]”, in the assay on 293T cells, the luciferase expression result is given as “high level of luciferase expression” and the “reduction of efficiency / luciferase expression after serum treatment” value is 17%. Further, the “increase of mRNA expression / efficiency in the liver relative to ADGN-106 or ADGN-100” value with mice (liver) came to 2 folds. Also, the “increase of efficiency in the muscle relative to ADGN-106” value with mice (muscle) came out at 5 folds.
As to “AC-ALWRA(GalNac)LWRLWRSLWRLLWKA-NH2 [ADGN-106GALNAC]”, in the assay on mice, the “target delivery and expression” value is “mRNA accumulation in the liver”. Moreover, the “Targeted Organ” value in the assay on mice or rat models was “Liver”.
The like results for “Ac-KWRSA(GalNac)LWRWRLWRVRSWSR-NH2 (Ac-KWRSA[GalNAc]LWRWRLWRVRSWSR-NH2; not fully specified; printed as Ac-KWRSA(GalNac)LWRWRLWRVRSWSR-NH2) [ADGN-100GALNAC]” were, in that order, “mRNA accumulation in the liver” and “Liver”.
Take “Ac-SYTSSTM-Ava-βALWRALWRLWRSLWRLLWKA-NH2 (Ac-SYTSSTM[Ava][βAla]LWRALWRLWRSLWRLLWKA-NH2; SMILES CSCC[C@H](NC(=O)[C@@H](NC(=O)[C@H](CO)NC(=O)[C@H](CO)NC(=O)[C@@H](NC(=O)[C@H](Cc1ccc(O)cc1)NC(=O)[C@H](CO)NC(C)=O)[C@@H](C)O)[C@@H](C)O)C(=O)NCCCCC(=O)NCCC(=O)N[C@@H](CC(C)C)C(=O)N[C@@H](Cc1c[nH]c2ccccc12)C(=O)N[C@@H](CCCNC(=N)N)C(=O)N[C@@H](C)C(=O)N[C@@H](CC(C)C)C(=O)N[C@@H](Cc1c[nH]c2ccccc12)C(=O)N[C@@H](CCCNC(=N)N)C(=O)N[C@@H](CC(C)C)C(=O)N[C@@H](Cc1c[nH]c2ccccc12)C(=O)N[C@@H](CCCNC(=N)N)C(=O)N[C@@H](CO)C(=O)N[C@@H](CC(C)C)C(=O)N[C@@H](Cc1c[nH]c2ccccc12)C(=O)N[C@@H](CCCNC(=N)N)C(=O)N[C@@H](CC(C)C)C(=O)N[C@@H](CC(C)C)C(=O)N[C@@H](Cc1c[nH]c2ccccc12)C(=O)N[C@@H](CCCCN)C(=O)N[C@@H](C)C(N)=O) [ADGN-106TB]”: the “target delivery and expression” value in the assay with mice was “the brain”. Moreover, the “Targeted Organ” value with mice or rat models was “Brain/Liver”.
For the substance “Ac-KSYDTY[Ava]ALRWLRWASRWFSRWAWR-NH2 [ADGN-109]”, the “target delivery and expression” value with mice was “the brain and lymphnode and at lower level in liver and kidney”.
Regarding “Ac-TGNYKALHPDHNG-WRSALRWRLWRWSR-NH2 [ADGN-102]”, in the assay with mice, the “target delivery and expression” value was “the brain”; the “increase of luciferase expression / efficiency in the lung relative to parent peptide” value worked out at 3 fold. For the same substance, the “Targeted Organ” value with mice or rat models is given as “Brain/Lung”.
As for “Ac-YIGSR-Ava(CH2)2-ALWRALWRLWRSLWRLLWKA-NH2 [ADGN-106-Hydro-3]”, in the assay on 293T cells, the luciferase expression entry is listed as “high level of luciferase expression” and the “reduction of efficiency / luciferase expression after serum treatment” value amounted to 32%. Further, in the assay with mice or rat models, the “Targeted Organ” value is “Tumor/Muscle”.
Take “Ac-CKRAV-RWWLRWASRWFSRWAWWR-NH2 [ADGN-109b]”: in the assay on mice, the “target delivery and expression” value is “the lung, heart and muscles”.
Consider “Ac-CARPAR-WRSAGWRWRLWRVRSWSR-NH2 (Ac-CARPARWRSAGWRWRLWRVRSWSR-NH2) [ADGN-101]”, for which, in the assay with mice, the “target delivery and expression” value was “heart and muscles”; the “increase of luciferase expression / efficiency in the lung relative to parent peptide” value is on record as 6 fold. Besides, the “Targeted Organ” value with mice or rat models is given as “Heart/Lung”.
Consider “Ac-KSYDTYAAETR-RWASRWFSRWAWWR-NH2 [ADGN-109D]”, for which the “target delivery and expression” value with mice was “the brain and lymphnode and at lower level in liver and kidney”.
Still for that read-out and setting: to “Ac-SYTSSTM-Ava-KWWERWWREWPRKRR [ADGN-105]” belongs “the brain and at lower level in liver, lung and lymphnode”.
With “Ac-ASSLNIA-Ava-KWWERWWREWPRKRR-NH2 [ADGN-103C]”, in the assay with mice, the “target delivery and expression” value is “negligible luciferase expression”.
Regarding “Ac-CKTRRVP-WRALWRLWRSLWRLLWKA-NH2 (Ac-CKTRRVPWRALWRLWRSLWRLLWKA-NH2) [ADGN-106TD]”, the “target delivery and expression” value with mice is “heart and muscles”. Also, the “Targeted Organ” value in the assay with mice or rat models is on record as “Muscle/Heart”.
As for “Ac-YIGSR-Ahx-KWRSALWRWRLWRVRSWSR-NH2 [ADGN-100-Hydro-8]”, the “increase of efficiency in the kidney relative to ADGN-100” value with mice (kidney) was determined as 4 folds. Further, the “increase of luciferase expression / efficiency in the lung relative to parent peptide” value in the assay on mice is recorded as 22 fold. Also, in the assay with mice or rat models, the “Targeted Organ” value is “Tumor/Lung”.
